Experimental data from patent US20240300935A1, “Nitrogen Oxide Donors of Beraprost Derivative and the Pharmaceutical Compositions with the Use Thereof” (GUANGZHOU KEMROCMED CO., LTD., priority 2021, published 2024).

Tests used:
[1] = In vitro NO release test (Griess method); details: 200 μM test compound solution mixed with 200 μM L-cysteine solution, 37° C.
Experimental: NO was transiently oxidized in aqueous solution using released NO by Griess' method, NO^2− And Griess reagent form a complex, which has strong UV uptake at 540 nm to determine the amount of NO released by the compound. • 1) Preparation of solution: blank solution: 10 mL DMSO and 190 m L PBS mixed; G riess Reagent: sulfonamide (4.0 g), N-(1-naphthalyl) ethylenediamine dihydrochloride (0.2 g) and 10 mL 85% H3PO4 dissolved in 90 mL of distilled water, Blow until clear solution; L-cysteine solution: after accurate weighing of L-cysteine, Add a certain amount of PBS, Prepare a weighed 200 μM solution; Test compound solution: the exact weighing of the test compound, Dissolved in D MSO and diluted to a concentration of 1 mM, Then, when diluted in PBS, To a concentration of 200 μM.
2) Formulation of standard curve equation: prepare sodium nitrite solution concentration: 0 ,0 , 1, 3, 6, 12.5, 25, 50, 100 μmol/L, 150 μL of each concentration, add 50 μL of Griess reagent mix, incubated in 37° C. constant temperature shaker for 30 min, the plate reader measured each tube absorbance at 540 nm, after subtracting the blank solution reading, the standard curve equation . . . 78.56.13.25 • 3) Test compound test: mix 2 mL of the test compound solution and L-cysteine solution, incubate in 37° C. constant temperature shakers for 120 min, take 150 μL of each mixture, add 50 μL of Griess reagent, then incubate in 37° C. constant temperature shaker for 30 min, the microplate measured each tube absorbance at 540 nm, then subtract the blank solution reading and substitute the value into the standard curve equation to obtain NO release.

[2] = system: rats with hypoxic pulmonary hypertension; test: In vivo test in rats with hypoxic pulmonary hypertension; design: species or system rat; details: SD male rats, low pressure low oxygen chamber, 5 mg/kg, after four weeks, vs model group
Experimental: • 1) Experimental instruments and materials, HX-200 animal ventilator, and SD male rats used in the experiment were all purchased from Yangzhou University. All control groups were reared in a normal environment, and the administration intervention and model groups were reared in the low pressure low oxygen chamber (air pressure 50 kPa, oxygen concentration 10%). • 2) Compound 15 was dissolved using DMSO/solutol/water (10/10/80). In the intervention group, the dose was 5 mg/kg, all rats were weighed weekly, survival was recorded, and pulmonary artery pressure was measured after four weeks. Rats (3 ml/kg) were anesthetized with chloral hydrate (100 g/L), fixed in the supine position, tracheotomy, and breathing assisted with a small animal ventilator (frequency 60 beats/min, 5 ml, breath ratio 4:5). Free the left third rib, a catheter connecting one end to the tension transducer was sent to the pulmonary artery, and the mean pulmonary artery pressure (mP AP) was recorded through the BL-420E Biofunction experimental system. […] The results of FIG. 1 show the effect of beraprost derivative compound 15.

[3] = system: postmenopausal osteoporosis mouse model; test: Therapeutic effect of osteoporosis, postmenopausal osteoporosis mouse model (ovariectomy); assay type: in vivo; design: Tb · N: unit not given here
From the text: • 1) Test materials; 1. Animal clean grade C57BL/6 strain, 8-10 weeks old not pregnant females were purchased from Yangzhou University. 2. Main reagents and instruments, Bujiale (estradiol valerate tablets, Bayer); mouse osteocalcin (osteocalcin, OC) enzyme-linked immunotest kit, alkaline phosphatase (alkaline phosphatase, ALP) test kit, tartrate acid phosphatase (StrACP) test kit (all the above kits were purchased in Nanjing). Dual-energy X-ray bone densitometer (HOLOGIC); ECLIPSE 50i microscope (Nikon); MUTISKANMK3 microplate reader (Thermo); tissue slicing equipment (including KD-TS3D1 biological tissue automatic dehydrmachine (Zhejiang Cody), TB-718 biological tissue automatic embedding machine (Hubei), R138 rotary slicer (Hubei), TK-212 automatic constant temperature drift instrument (Hubei), TK-213 automatic constant temperature dryer (Hubei), etc.). • 2) Test method: A animals were grouped, and the random method divided the female mice into 4 groups, namely, sham operation group, model group, positive drug group, and test drug group. B Preparation of postmenopausal osteoporosis mouse model, chloral hydrate anesthesia and removed the ovaries in the lying position. In the sham group, only the same volume of fat tissue near the ovaries was removed. Vaginal smear was performed on days 4-8 after ovariectomy to determine if the ovariectomy was complete. Method of c, on the third day after the operation, positive control drug (0.1 mL/10 g gavage), equal volume of 0.9%sodium chloride solution in sham group and model group, continuous gavage for 28 d. Test ResResults test: Blood and bone tissue samples after day 28. The following indicators were tested: (1) determination of bone density, lumbar L4-6 measurement of bone density by double energy X-ray bone density instrument. (2) Observation of bone tissue and morphology, the bone tissue and morphology changes were observed by tibial HE staining, mainly testing the trabecular volume ratio (bone volume/tissue volume, BV/TV) and the number of trabecular bone (trabecular bone number, Tb. N) and trabecular separation (trabecular separation, Tb. And sp) were the quantitative evaluation index. (3) For the determination of biological indicators ALP, StrACP, OC, and E 2 in mouse serum, blood was collected by enucleation method, and by kit and enzyme-linked adsorption assay.

[4] = system: renal tubular epithelial cells in acute renal failure; test: Renal tubular protective effect of acute renal failure (co-culture with isolated cells); assay type: cell-based, rat; details: renal tubular epithelial cells from acute renal failure rats, 200 μg/mL
From the text: • 1) Test materials, glycerol (MacLean Company); CCK-8 kit, Annexin V-PE cell apoptosis detection kit, superoxide dismutase activity detection kit, malondialdehyde detection kit (Biyun Biotech); first anti-cysteine aspartate protease, caspase 3 and 9, B lymphocytoma-2 gene, Bcl-2-associated X protein (BAX, anti-rabbit), TGF-β 1, smad 3 (abcam, USA). Protein gel imager, microplate reader, and flow cytometer (Beckman Coulter, Type CytoFLEX). Clean-grade SD rats were purchased from Yangzhou University. • 2) Test method, the model of acute renal failure of rat hind limb injection was used. After 24 h, the level of BUN and Cr increased in rat serum, vascular necrosis of renal interstitium, and inflammatory cell infiltration were regarded as successful model establishment. Some renal tissues from model animals were taken for in vitro culture, renal tubular epithelial cells were isolated and identified, and test drug co-culture (0-24 hours) was added. Changes of various biochemical indicators and apoptosis were determined. […] Conclusion Test compounds can promote tubular epithelial cells proliferation, inhibit apoptosis, inhibit oxidative stress, and slow the damage of renal tubular epithelial cells by inhibiting the expression of proapoptotic proteins.

[5] = system: platelet aggregation induced by ADP; test: Antiplatelet aggregation effect, ADP-induced, turbidimetry in platelet-rich plasma; assay type: cell-based; details: Homo sapiens, 2 min; platelet rich plasma of healthy subjects; 25 μL of 50 nM compound solution in 225 μL plasma, 37° C. 2 min; ADP final 2 μM; read-out: The rate of platelet aggregation inhibition
Experimental: • 1) Experimental material: ADP, epinephrine, collagen (bilBio) • 2) Experimental method: blood samples provided by healthy subjects were mixed blood with 3.8% citric acid solution and centrifuged at 160 r/min to obtain platelet-rich plasma. To calibrate the data, the obtained platelet-rich plasma was further centrifuged at 2000 r/min to obtain platelet-poor plasma, stored in a −20° C. refrigerator. Testing was performed using Born I's turbiometry. 225 μL of platelet rich plasma was added to the reaction cup, the embodiment compound was configured as 50 nM solution (25 m M Tris-acetate and 120 m M N a Cl), 25 μL of embodiment compound solution was added and after incubation at 37° C. for 2 min, 5 μL of ADP (final concentration 2 μM) was added for platelet aggregation induction. To assess the degree of platelet aggregation, the maximum absorbance value took the data after ADP, thus calculating the inhibition rate of ADP-induced platelet aggregation by each embodiment compound. According to the data in Table 6 below, the compounds of the present application embodiment all have a good effect of inhibiting the platelet aggregation induced by ADP.

[6] = tibial HE staining, ovariectomised C57BL/6 mice, gavage 28 d

Structure (SMILES)	120 min NO^2− [1]	mean pulmonary artery pressure (mPAP) [2]	ALP ([3]; mouse serum, day 28)	E2 ([3]; mouse serum, day 28)	OC ([3]; mouse serum, day 28)	Str ACP ([3]; mouse serum, day 28)	BV/VT [3, 6]	Tb · N [3, 6]	Tb · sp [3, 6]	B AX protein level [4]	B CL2 protein level [4]	MDA [4]	S mad3 protein level [4]	SOD [4]	T GF-β1 protein level [4]	The rate of apoptosis [4]	caspase3 protein level [4]	caspase9 protein level [4]	inhibition at 0.005 µM [5]
CC#CCC(C)[C@@H](O)/C=C/[C@H]1[C@@H]2c3cccc(CCCC(=O)OCC4CCCC(CO[N+](=O)[O-])C4)c3O[C@@H]2C[C@@H]1O (some centres unmarked) [Compound 15]	12.7 µM	lower compared with the model group	19 ± 2.2 King-Armstrong unit/100 mL	35 ± 4 ng/mL	1.7 ± 0.2 ng/mL	41 ± 3.6 U/L	0.29 ± 0.05	7.5 ± 0.6	152 ± 15 μm	0.32 ± 0.12	0.56 ± 0.11	489 ± 38 Nnol/g protein	0.19 ± 0.07	1016 ± 117 U/g egg white	0.24 ± 0.05	9 ± 0.7%	0.28 ± 0.06	0.48 ± 0.1	92%
CC#CCC(C)[C@@H](O)/C=C/[C@H]1[C@@H]2c3cccc(CCCC(=O)OCOc4c(S(=O)(=O)c5ccccc5)no[n+]4[O-])c3O[C@@H]2C[C@@H]1O (some centres unmarked) [Compound 32]	20.4 µM																		55%
CC#CCC(C)[C@@H](O)/C=C/[C@H]1[C@@H]2c3cccc(CCCC(=O)OCCOc4no[n+]([O-])c4S(=O)(=O)c4ccccc4)c3O[C@@H]2C[C@@H]1O (some centres unmarked) [Compound 33]	14.2 µM																		82%
